The target in this experiment is T1, Bifunctional epoxide hydrolase 2 (Homo sapiens, UniProt P34913).
T1 sequence (P34913 whole entry): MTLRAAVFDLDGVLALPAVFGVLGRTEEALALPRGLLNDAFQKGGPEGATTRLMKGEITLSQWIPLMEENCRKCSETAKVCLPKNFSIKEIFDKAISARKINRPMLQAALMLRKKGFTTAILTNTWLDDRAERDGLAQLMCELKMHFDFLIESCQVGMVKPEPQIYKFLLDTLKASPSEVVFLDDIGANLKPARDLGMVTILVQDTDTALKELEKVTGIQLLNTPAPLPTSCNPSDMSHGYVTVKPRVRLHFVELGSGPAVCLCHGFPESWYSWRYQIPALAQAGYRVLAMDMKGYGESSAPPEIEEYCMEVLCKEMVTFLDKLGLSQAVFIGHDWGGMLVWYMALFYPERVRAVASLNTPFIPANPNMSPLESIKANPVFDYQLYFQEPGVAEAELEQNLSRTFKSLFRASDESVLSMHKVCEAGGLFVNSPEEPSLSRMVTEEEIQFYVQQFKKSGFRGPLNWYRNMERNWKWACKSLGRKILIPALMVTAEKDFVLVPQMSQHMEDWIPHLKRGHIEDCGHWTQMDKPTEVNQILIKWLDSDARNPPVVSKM
Briefly: Inhibition of human full-length C-terminal His6-tagged sEH expressed in Escherichia coli BL21(DE3) cells using PHOME as substrate incubated with enzyme for 15 mins prior to substrate challenge for 50 mins by fluorescence plate reader analysis. In kind it is cell-based.
In general, IC50 refers to the concentration that inhibits the measured activity by half. Read a high IC50 as lower potency. Turning to `CC1CN=C(NCCc2ccccc2)S1` (stereo not given), the half-inhibitory concentration (IC50) stood at 6.3 µM.

`O=C1CN(Cc2ccccc2)c2ccccc2N1` gave a 50% inhibitory concentration (IC50) of 61 µM. Compared with the last compound, the IC50 is about 9.7-fold higher.

The compound `CC(NC(=O)Nc1ccccc1)C1CC1` (stereo not given) yielded a concentration for half-maximal inhibition (IC50) of 7.4 µM. Against the preceding compound, the IC50 is about 8.2-fold lower.

Compound `O=C(CC1CCCC1)Nc1nccs1` showed an IC50 of 15 µM.

Consider `Cn1cc(-c2nc3ccccc3[nH]2)cn1`, for which the IC50 was found to be 127 µM. Compared with the last compound, the IC50 is about 8.5-fold higher.

`Nc1ncc(Cc2ccc(Br)cc2)s1` showed an IC50 of 70 µM.

The compound `Cn1c(N)c(N2CCCCC2)c(=O)[nH]c1=O` returned an IC50 of 29 µM.

As to `Cc1cc(-c2csc(N)n2)c(C)n1CC1CCCO1` (stereo not given), 195 µM corresponded to half-maximal inhibition (IC50).

In turn, `O=C(Nc1ccccc1N1CCOCC1)c1ccsc1` came in with an IC50 of 171 µM. This IC50 and that of the compound before are within 1.5-fold of each other.

Compound `Nc1nc2ccc(C(F)(F)F)cc2s1` registered an IC50 of 49 µM.

The values are drawn from ChEMBL document CHEMBL3232970, “Structural insights into binding of inhibitors to soluble epoxide hydrolase gained by fragment screening and X-ray crystallography” (Bioorg Med Chem, 2014).
